Consider one molecule from patent publication US20190210996A1, “NOVEL COMPOUNDS” (GLAXOSMITHKLINE INTELLECTUAL PROPERTY DEVELOPMENT LIMITED, priority 2016, published 2019).

What all share (assay type): cell-based
One test concerns the target T1, PTK2B (Homo sapiens, UniProt Q14289).
T1 construct: endogenous in cells; host or cells: THP-1
As to the kind of experiment: Expression proteomics in THP-1 cells: PTK2B protein level. The procedure:
(§1) THP-1 cells were seeded at a concentration of 3×10^6 cells in T175 flasks with 60 mL growth medium (RPMI1640+10% FBS). […] of a 10× compound solution prepared in growth medium (DMSO), CEREBLON_PROTAC) was added and the cells were treated for the indicated time points (6 or 24 h) at 37° C., 5% CO2. For harvesting the cells were collected into falcon tubes on ice, centrifuged and washed twice in cold PBS (Life technologies). After the last washing step the supernatant was removed and the pellets were snap-frozen in liquid N2 and stored at −80° C. and lysed in 2% SDS for 3 min at 95° C. in a thermomixer (Thermo Fisher Scientific), followed by digestion of DNA with Benzonase at 37° C. for 1.5 h. Lysate was cleared by centrifugation an protein concentration in supernatant was determined by BCA assay.
(§2) Leukemia 25, 89-100 (2011).
(§3) Samples were dried in vacuo and resuspended in 0.05% trifluoroacetic acid in water. Of the sample, 50% was injected into an Ultimate3000 nanoRLSC (Dionex, Sunnyvale, Calif.) coupled to a Q Exactive HF (Thermo Fisher Scientific). Peptides were trapped on a 5 mm×300 μm C18 column (Pepmap100, 5 μm, 300 Å, Thermo Fisher Scientific) in water with 0.05% TFA at 60° C. Separation was performed on custom 50 cm×[…] (ID) reversed-phase columns (Reprosil) at 55° C. Gradient elution was performed from 2% acetonitrile to 40% acetonitrile in 0.1% formic acid and 3.5% DMSO over 2 hours. Samples were online injected into Q-Exactive HF mass spectrometers operating with a data-dependent top 10 method. MS spectra were acquired by using 60.000 resolution and an ion target of 3×10^6. Higher energy collisional dissociation (HCD) scans were performed with 35% NCE at 30.000 resolution (at m/z 200), and the ion target settings was set to 2×10^5 so as to avoid coalescence (Werner, T. et al. Ion Coalescence of Neutron Encoded TMT 10-Plex Reporter Ions. Anal. Chem. 86, 3594-3601 (2014).
(§4) The first search was performed with 30 parts per million mass tolerance for peptide precursors and 30 mD (HCD) mass tolerance for fragment ions followed by a final search using recalibrated data with a 10 parts per million mass tolerance for peptide precursors and 20 mD (HCD) mass tolerance for fragment ions. Carbamidomethylation of cysteine residues and TMT modification of lysine residues were set as fixed modifications and methionine oxidation, and N-terminal acetylation of proteins and TMT modification of peptide N-termini were set as variable modifications. […]
(§5) Nat Biotech 29, 255-265 (2011). this measure is referred to as ion area Savitski, M. M. et al. Delayed Fragmentation and Optimized Isolation Width Settings for Improvement of Protein Identification and Accuracy of Isobaric Mass Tag Quantification on Orbitrap-Type Mass Spectrometers. […]

Another test deals with T2, ABL1 (Homo sapiens, UniProt P00519).
T2 construct: endogenous in cells; host or cells: THP-1
T2 sequence (P00519 whole entry): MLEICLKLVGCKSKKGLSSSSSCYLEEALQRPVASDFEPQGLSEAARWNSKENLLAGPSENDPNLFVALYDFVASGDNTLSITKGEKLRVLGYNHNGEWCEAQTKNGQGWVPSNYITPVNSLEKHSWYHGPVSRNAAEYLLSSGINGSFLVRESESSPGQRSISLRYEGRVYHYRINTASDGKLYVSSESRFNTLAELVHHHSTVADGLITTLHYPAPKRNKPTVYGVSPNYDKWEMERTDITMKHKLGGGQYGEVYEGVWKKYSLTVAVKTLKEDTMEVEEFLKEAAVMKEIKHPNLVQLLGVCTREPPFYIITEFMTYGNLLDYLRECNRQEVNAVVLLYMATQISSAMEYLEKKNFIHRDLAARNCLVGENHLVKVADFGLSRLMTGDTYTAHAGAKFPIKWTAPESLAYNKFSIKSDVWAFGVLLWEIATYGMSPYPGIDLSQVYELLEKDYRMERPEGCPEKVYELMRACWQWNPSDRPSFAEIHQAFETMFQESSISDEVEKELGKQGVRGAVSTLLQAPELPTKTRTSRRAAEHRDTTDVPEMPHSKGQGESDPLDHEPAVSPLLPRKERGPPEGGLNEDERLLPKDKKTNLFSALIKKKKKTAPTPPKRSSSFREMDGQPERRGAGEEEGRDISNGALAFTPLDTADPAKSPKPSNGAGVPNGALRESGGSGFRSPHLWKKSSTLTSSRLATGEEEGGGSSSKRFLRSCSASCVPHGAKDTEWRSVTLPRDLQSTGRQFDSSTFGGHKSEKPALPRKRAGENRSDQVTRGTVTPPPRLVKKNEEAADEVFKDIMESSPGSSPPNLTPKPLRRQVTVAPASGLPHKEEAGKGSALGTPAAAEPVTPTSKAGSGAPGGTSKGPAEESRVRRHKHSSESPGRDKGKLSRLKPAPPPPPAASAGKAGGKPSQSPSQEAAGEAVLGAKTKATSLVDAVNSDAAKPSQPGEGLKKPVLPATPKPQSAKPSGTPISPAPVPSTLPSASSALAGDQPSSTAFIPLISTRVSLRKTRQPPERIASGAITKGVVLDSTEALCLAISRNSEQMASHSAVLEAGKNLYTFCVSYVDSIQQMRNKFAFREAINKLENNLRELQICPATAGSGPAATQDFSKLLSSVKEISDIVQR
Put plainly: Expression proteomics in THP-1 cells: ABL1 protein level. Particulars: ABL1, THP-1 cells. The procedure: as §1, §2, §3, §4, §5

The next test has as its target T3, AURKA (Homo sapiens, UniProt O14965).
T3 construct: endogenous in cells; host or cells: THP-1
T3 sequence (O14965 1-403): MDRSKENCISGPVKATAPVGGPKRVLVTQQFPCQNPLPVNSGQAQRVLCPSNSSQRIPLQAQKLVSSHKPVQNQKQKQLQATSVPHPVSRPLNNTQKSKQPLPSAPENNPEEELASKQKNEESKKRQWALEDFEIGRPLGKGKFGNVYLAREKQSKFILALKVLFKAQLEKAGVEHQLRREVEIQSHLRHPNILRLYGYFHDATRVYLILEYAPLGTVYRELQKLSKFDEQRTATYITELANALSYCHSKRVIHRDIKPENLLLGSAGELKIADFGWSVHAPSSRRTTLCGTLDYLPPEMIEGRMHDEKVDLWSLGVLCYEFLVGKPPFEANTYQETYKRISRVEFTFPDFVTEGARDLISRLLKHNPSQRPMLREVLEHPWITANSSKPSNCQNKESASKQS
Put plainly: Expression proteomics in THP-1 cells: AURKA protein level. The procedure: as §1, §2, §3, §4, §5

Another test has as its target T4, PTK2 (Homo sapiens, UniProt Q05397).
T4 construct: endogenous in cells; host or cells: THP-1
Put plainly: Expression proteomics in THP-1 cells: PTK2 protein level. Particulars: PTK2, THP-1 cells. The procedure:
as §1, §2, §3, §4, §5

T4 sequence (Q05397 whole entry): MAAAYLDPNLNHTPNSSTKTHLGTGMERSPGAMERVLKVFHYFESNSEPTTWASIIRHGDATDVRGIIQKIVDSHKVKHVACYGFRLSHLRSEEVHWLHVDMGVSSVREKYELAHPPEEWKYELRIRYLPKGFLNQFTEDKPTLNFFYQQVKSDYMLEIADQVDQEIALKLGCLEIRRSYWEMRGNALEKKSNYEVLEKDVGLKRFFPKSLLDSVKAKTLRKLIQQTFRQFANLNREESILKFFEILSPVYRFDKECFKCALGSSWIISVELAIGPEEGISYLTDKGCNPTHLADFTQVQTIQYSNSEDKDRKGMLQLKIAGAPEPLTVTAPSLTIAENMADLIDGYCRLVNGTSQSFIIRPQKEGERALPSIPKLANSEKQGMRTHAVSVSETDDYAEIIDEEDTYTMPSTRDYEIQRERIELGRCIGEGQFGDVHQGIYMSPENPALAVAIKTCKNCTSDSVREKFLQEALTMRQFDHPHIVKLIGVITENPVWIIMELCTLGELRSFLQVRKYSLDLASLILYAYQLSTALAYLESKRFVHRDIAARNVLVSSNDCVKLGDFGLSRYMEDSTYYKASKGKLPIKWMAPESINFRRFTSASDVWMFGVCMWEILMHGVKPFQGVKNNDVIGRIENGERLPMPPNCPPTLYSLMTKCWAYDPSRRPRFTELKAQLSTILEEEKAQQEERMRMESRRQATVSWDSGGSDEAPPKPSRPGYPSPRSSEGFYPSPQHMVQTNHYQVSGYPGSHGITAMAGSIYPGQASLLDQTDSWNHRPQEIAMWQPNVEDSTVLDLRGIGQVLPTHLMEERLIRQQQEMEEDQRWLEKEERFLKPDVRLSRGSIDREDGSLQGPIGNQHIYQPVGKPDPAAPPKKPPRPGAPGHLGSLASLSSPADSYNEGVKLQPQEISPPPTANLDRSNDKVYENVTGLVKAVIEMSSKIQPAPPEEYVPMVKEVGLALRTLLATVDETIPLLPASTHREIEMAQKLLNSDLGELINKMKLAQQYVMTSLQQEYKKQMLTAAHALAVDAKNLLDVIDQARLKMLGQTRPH
T1 sequence (Q14289 whole entry): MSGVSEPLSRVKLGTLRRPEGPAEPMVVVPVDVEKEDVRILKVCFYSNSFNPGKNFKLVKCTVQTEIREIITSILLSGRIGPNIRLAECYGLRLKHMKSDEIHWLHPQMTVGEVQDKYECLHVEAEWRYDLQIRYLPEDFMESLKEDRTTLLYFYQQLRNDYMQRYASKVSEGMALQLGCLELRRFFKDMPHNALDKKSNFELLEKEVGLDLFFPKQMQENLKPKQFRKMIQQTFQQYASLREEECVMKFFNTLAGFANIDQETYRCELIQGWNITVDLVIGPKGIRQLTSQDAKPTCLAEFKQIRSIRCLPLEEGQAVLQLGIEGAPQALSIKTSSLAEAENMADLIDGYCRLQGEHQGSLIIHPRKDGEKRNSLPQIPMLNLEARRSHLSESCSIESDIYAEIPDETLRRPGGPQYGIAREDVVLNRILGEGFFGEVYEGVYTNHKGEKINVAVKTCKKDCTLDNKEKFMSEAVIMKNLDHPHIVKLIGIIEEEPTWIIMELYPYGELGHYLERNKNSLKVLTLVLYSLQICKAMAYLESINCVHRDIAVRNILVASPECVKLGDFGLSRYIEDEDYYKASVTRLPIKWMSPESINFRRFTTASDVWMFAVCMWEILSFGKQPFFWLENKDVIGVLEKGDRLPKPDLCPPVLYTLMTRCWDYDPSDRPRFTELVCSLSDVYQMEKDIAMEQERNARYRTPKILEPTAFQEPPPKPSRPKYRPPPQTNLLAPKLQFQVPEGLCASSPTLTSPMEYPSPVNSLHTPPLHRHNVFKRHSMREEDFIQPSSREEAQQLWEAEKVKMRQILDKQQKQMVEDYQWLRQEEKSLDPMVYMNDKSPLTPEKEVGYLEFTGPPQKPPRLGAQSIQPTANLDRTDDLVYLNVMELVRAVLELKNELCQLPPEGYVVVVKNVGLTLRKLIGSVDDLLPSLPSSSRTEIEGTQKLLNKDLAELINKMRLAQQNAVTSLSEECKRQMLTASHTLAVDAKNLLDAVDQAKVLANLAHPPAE

On to `CNC(=O)c1ccccc1Nc1nc(Nc2ccc(N3CCN(CCOCCOCCOCCOCC(=O)Nc4cccc5c4CN(C4CCC(=O)NC4=O)C5=O)CC3)cc2)ncc1Cl.O=CO` (stereo not shown) [CEREBLON_PROTAC, 14-(4-(4-((5-Chloro-4-((2-(methylcarbamoyl)phenyl)amino)pyrimidin-2-yl)amino)phenyl)piperazin-1-yl)-N-(2-(2,6-dioxopiperidin-3-yl)-1-oxoisoindolin-4-yl)-3,6,9,12-tetraoxatetradecan-1-amide formate], for which the “log2 rel. fc. to vehicle control” value was −2.34 at PTK2B (24 h 0.1 μM, n = 1); −2.50 on PTK2B (24 h 0.1 μM, n = 2); −2.09 at PTK2B (24 h 1 μM, n = 1); −2.18 on PTK2B (24 h 1 μM, n = 2); −0.72 on ABL1 (24 h 0.1 μM, n = 1); −0.70 on ABL1 (24 h 0.1 μM, n = 2). Also, the “log2 rel. fc. to vehicle control” value at ABL1 (24 h 1 μM, n = 1) was −1.43; on ABL1 (24 h 1 μM, n = 2) it was −1.63; at AURKA (24 h 0.1 μM, n = 1), −1.45; at AURKA (24 h 0.1 μM, n = 2), −1.00; on AURKA (24 h 1 μM, n = 1), −2.10; on AURKA (24 h 1 μM, n = 2), −1.93. The “log2 rel. fc. to vehicle control” value on PTK2 (24 h 0.1 μM, n = 1) was −2.29; on PTK2 (24 h 0.1 μM, n = 2), −2.92; at PTK2 (24 h 1 μM, n = 1), −2.42; at PTK2 (24 h 1 μM, n = 2), −2.20.
